# Like-named read-outs stand apart in the source and are kept apart here.
# Legend:
# HSV-2 TS6 = test: microbe, parasite or virus in culture; conditions: Human alphaherpesvirus 2, read-out: ED50
# [1] = system: Herpes simplex virus type 1; test: Intraperitoneal Herpes simplex type 1 infection in mice, oral treatment (Table XI); format: in vivo, Herpes simplex type 1; ICR/Ha mice; conditions: for Percent Survival: at 13 days
# From the text: ICR/Ha mice were infected as described in Example 36. […] These animals served as toxicity controls.
# [2] = system: Herpes simplex virus type 1; test: Tube dilution assay, viral cytopathology of HSV-1 in rabbit kidney cell cultures; conditions: Human alphaherpesvirus 1, in Oryctolagus cuniculus
# [3] = system: Herpes simplex virus type 2; test: Tube dilution assay, viral cytopathology of HSV-2 in rabbit kidney cell cultures; conditions: Human alphaherpesvirus 2, in Oryctolagus cuniculus, read-out: Minimum Effective Concentration
# SV40 = test: Plaque inhibition, SV40 on CV-1 cells (Table V); format: cell-based, SV40; CV-1 (monkey) cells; conditions: Primates, read-out: ED50, concentration required for 50% plaque inhibition; SV40, CV-1
# Description: ED50 values developed for the cyclic monophosphate are compared on a weight basis to those established for the compound of Formula II and acyclovir.
# SV40 was assayed on CV-1 (monkey) cell cultures.
# [4] = system: HSV-1 wild type (Schooler); test: Protection of mice against intraperitoneal infection with HSV-1 (Table IX); format: in vivo, HSV-1; mice
# Description: (§1) 1. […] Groups of mice infected intraperitoneally with increasing doses of HSV-1 or HSV-1 (383R1) were treated twice daily subcutaneously for 4 days with either the Cyclic Monophosphate or the compound of Formula II. Mean survival times of treated mice were compared.
# [5] = system: Herpes simplex virus type 1 (Strain S); test: Orofacial Herpes simplex virus type 1 infection in mice, therapeutic oral treatment (Table XIV); format: in vivo, Herpes simplex virus type 1; HRS (hairless) mice; conditions: for Lesion Incidence (%) / Lesion Incidence (number/Total) / Lesion Severity (scale 0 to 4): 12.5 mg/kg/day oral
# Description: Twenty gram HRS (hairless) mice were infected on the abraded orofacial area with Herpes simplex virus type 1 (Strain S).
# a. Groups of 10 infected animals were treated twice daily by oral gavage for up to 7 days with the compound of formula II at 12.5 mg/kg/day, starting 3, 8, 12, 24, 48, 72, or 96 hours after infection. […]
# At 7 days after initiation of infection, the extent of lesion development in the orofacial area was measured on a scale of 0 (no lesions) to 4 (massive lesions over the entire snout).
# HSV-1 (383R1) = test: Protection of mice against intraperitoneal infection with HSV-1 (383R1) (Table IX); format: in vivo, HSV-1; mice
# Description: as §1
# Varicella-Zoster virus = test: Varicella-Zoster plaque reduction assay on human MRC-5 monolayers; format: cell-based, Varicella-Zoster (Strain KMcC); human MRC-5 cells
# From the text: ^b Plaque reduction assay on human MRC5 cell monolayers.
# HSV-1 383R1 = format: cell-based, HSV-1 (383R1); NIH 3T3 mouse cells; conditions: Human alphaherpesvirus 1, in Mus musculus
# [6] = system: Herpes simplex virus type 1 (Strain S); test: Orofacial Herpes simplex virus type 1 infection in mice, oral treatment (Table XIII); format: in vivo, Herpes simplex virus type 1; HRS (hairless) mice; conditions: for Lesion Incidence (%) / Lesion Incidence (number/Total) / Lesion Severity (scale 0 to 4): 7 days
# Description: Twenty grams HRS (hairless) mice were infected on the abraded orofacial area with Herpes simplex virus type 1 (Strain S). […] At 7 days after initiation of infection, the extent of lesion development in the orofacial area was measured on a scale of 0 (no lesions) to 4 (massive lesions over the entire snout).
smiles,measurement,setting,value
"Nc1nc2c(ncn2COC(CO)CO)c(=O)[nH]1 [Compound of Formula II, 9-(1,3-Dihydroxy-2-propoxymethyl)guanine]",EC50,HSV-2 TS6,15.5 µg/mL
same,Avg. Survival Time,[1]; 0.2 mg/kg/day oral,6.8 days
same,Percent Survival,[1]; 0.2 mg/kg/day oral,0%
same,Avg. Survival Time,[1]; 0.8 mg/kg/day oral,8.5 days
same,Percent Survival,[1]; 0.8 mg/kg/day oral,20%
same,Avg. Survival Time,[1]; 3.1 mg/kg/day oral,11.7 days
same,Percent Survival,[1]; 3.1 mg/kg/day oral,50%
same,Avg. Survival Time,[1]; 12.5 mg/kg/day oral,13.9 days
same,Percent Survival,[1]; 12.5 mg/kg/day oral,80%
same,Avg. Survival Time,[1]; 50 mg/kg/day oral,16.9 days
same,Percent Survival,[1]; 50 mg/kg/day oral,100%
same,extension of survival time vs placebo,"[1]; 50, 12.5, 3.1 and 0.8 mg/kg daily",statistically significant extension of survival time
same,survival vs placebo,[1]; 50 and 12.5 mg/kg groups,statistically significantly longer
same,"overt toxicity, final weight of test animals","[1]; oral, twice daily for 7 days",no evidence of overt toxicity
same,relative potency to acycloguanosine,[1]; statistically significant,50.3
same,minimal effective concentration,"[2]; read-out: Minimum Effective Concentration, Strain McIntyre",3 µg/mL
same,minimal effective concentration,"[2]; read-out: Minimum Effective Concentration, Strain McKrae",1 to 3 µg/mL
same,minimal effective concentration,"[2]; read-out: Minimum Effective Concentration, Strain S",1 to 3 µg/mL
same,minimal effective concentration,"[2]; read-out: Minimum Effective Concentration, Strain Schooler",1 to 3 µg/mL
same,minimal effective concentration,[3],1 to 3 µg/mL
same,EC50,SV40,> 100 µg/mL
same,Mean Survival Time (± SD),"[4]; HSV-1, s.c. twice daily, 4 days",12.55 (0.88)
same,protective efficacy over a 10^6 -fold virus challenge range,[4]; HSV-1 or HSV-1 (383R1),no significant difference in protective efficacy
same,Lesion Incidence (%),[5]; start 3 hours post infection,60%
same,Lesion Incidence (number/Total),[5]; start 3 hours post infection,6/10
same,Lesion Severity (scale 0 to 4),[5]; start 3 hours post infection,1.30
same,Lesion Incidence (%),[5]; start 8 hours post infection,30%
same,Lesion Incidence (number/Total),[5]; start 8 hours post infection,3/10
same,Lesion Severity (scale 0 to 4),[5]; start 8 hours post infection,0.55
same,Lesion Incidence (%),[5]; start 12 hours post infection,50%
same,Lesion Incidence (number/Total),[5]; start 12 hours post infection,5/10
same,Lesion Severity (scale 0 to 4),[5]; start 12 hours post infection,0.55
same,Lesion Incidence (%),[5]; start 24 hours post infection,40%
same,Lesion Incidence (number/Total),[5]; start 24 hours post infection,4/10
same,Lesion Severity (scale 0 to 4),[5]; start 24 hours post infection,0.40
same,Lesion Incidence (%),[5]; start 48 hours post infection,90%
same,Lesion Incidence (number/Total),[5]; start 48 hours post infection,9/10
same,Lesion Severity (scale 0 to 4),[5]; start 48 hours post infection,1.50
same,Lesion Incidence (%),[5]; start 72 hours post infection,80%
same,Lesion Incidence (number/Total),[5]; start 72 hours post infection,8/10
same,Lesion Severity (scale 0 to 4),[5]; start 72 hours post infection,2.55
same,Lesion Incidence (%),[5]; start 96 hours post infection,100%
same,Lesion Incidence (number/Total),[5]; start 96 hours post infection,10/10
same,Lesion Severity (scale 0 to 4),[5]; start 96 hours post infection,3.85
same,incidence of lesion development vs placebo,"[5]; start 8, 12 and 24 hours after infection",statistically significant lower incidence of lesion development
same,lesion scores vs placebo,[5]; start as late as 72 hours after infection,statistically significant lower lesion scores
same,Mean Survival Time (± SD),"HSV-1 (383R1); HSV-1 (383R1), s.c. twice daily, 4 days",9.05 (0.80)
same,efficacy against HSV-1 (383R1) relative to wild type HSV-1,"HSV-1 (383R1); mouse, in vivo",significantly lower
same,minimal effective concentration,"Varicella-Zoster virus; Human alphaherpesvirus 3, MRC5, Strain KMcC, plaque reduction, read-out: Minimum Effective Concentration",1 to 2 µg/mL
same,comparative activity,Varicella-Zoster virus; compound of formula II vs acycloguanosine,equally active
same,EC50,"HSV-1 383R1; read-out: Antiviral Concentration, 50% plaque reduction, HSV-1 383R1, 3T3 TK^- /TK^+HSV cells",0.06 µg/mL
same,EC50,"HSV-1 383R1; read-out: Antiviral Concentration, 50% plaque reduction, HSV-1 383R1, 3T3 TK^- cells",5 µg/mL
same,Lesion Incidence (%),[6]; 0.2 mg/kg/day oral,100%
same,Lesion Incidence (number/Total),[6]; 0.2 mg/kg/day oral,7/7
same,Lesion Severity (scale 0 to 4),[6]; 0.2 mg/kg/day oral,2.93
same,Lesion Incidence (%),[6]; 0.8 mg/kg/day oral,100%
same,Lesion Incidence (number/Total),[6]; 0.8 mg/kg/day oral,7/7
same,Lesion Severity (scale 0 to 4),[6]; 0.8 mg/kg/day oral,2.93
same,Lesion Incidence (%),[6]; 3.1 mg/kg/day oral,67%
same,Lesion Incidence (number/Total),[6]; 3.1 mg/kg/day oral,6/9
same,Lesion Severity (scale 0 to 4),[6]; 3.1 mg/kg/day oral,1.00
same,Lesion Incidence (%),[6]; 12.5 mg/kg/day oral,20%
same,Lesion Incidence (number/Total),[6]; 12.5 mg/kg/day oral,2/10
same,Lesion Severity (scale 0 to 4),[6]; 12.5 mg/kg/day oral,0.45
same,Lesion Incidence (%),[6]; 50 mg/kg/day oral,10%
same,Lesion Incidence (number/Total),[6]; 50 mg/kg/day oral,1/10
same,Lesion Severity (scale 0 to 4),[6]; 50 mg/kg/day oral,0.05
same,incidence of lesions vs placebo,[6]; 50 and 12.5 mg/kg,statistically significant protection
same,extent of lesion development vs placebo,[6]; all concentrations used,statistically significant protection
same,relative potency to acycloguanosine,[6]; statistically significant,6.9

# From patent US4816447A, “Anti-viral guanine compounds” (priority 1984, dated 1989)
